Experimental data from ChEMBL document CHEMBL3351753, “Inhibitory effects of ginseng sapogenins on the proliferation of triple negative breast cancer MDA-MB-231 cells” (Bioorg Med Chem Lett, 2014).
Active and inactive are the calls of the source. No cut-off for these calls is given here.

Key:
[1] = test system: MDA-MB-231; assay: Antiproliferative activity against human MDA-MB-231 cells after 4 hrs by MTT assay; assay type: functional, cell-based; conditions: MDA-MB-231, 4 h
[2] = test system: MDA-MB-231; assay: Induction of apoptosis in human MDA-MB-231 cells assessed as increase in expression of cleaved caspase 8 at 2.5 to 5.8 uM after 24 hrs by SDS-polyactylamide gel electrophoresis; assay type: functional, cell-based
[3] = test system: MDA-MB-231; assay: Induction of apoptosis in human MDA-MB-231 cells assessed as increase in cells at early apoptotic phase at 2.5 uM after 24 hrs by annexin-V-FITC/propidium iodide staining- based flow cytometric analysis (reference value: 4.76%); assay type: functional
[4] = test system: LLC-PK1; assay: Cytotoxicity against pig LLC-PK1 cells after 4 hrs by MTT assay; assay type: cell-based; conditions: Sus scrofa, LLC-PK1, 4 h
[5] = test system: MDA-MB-231; assay: Induction of apoptosis in human MDA-MB-231 cells assessed as increase in expression of cleaved caspase 3 at 2.5 to 5.8 uM after 24 hrs by SDS-polyactylamide gel electrophoresis; assay type: functional, cell-based
[6] = test system: MDA-MB-231; assay: Induction of apoptosis in human MDA-MB-231 cells assessed as decrease in expression of full-length BID at 2.5 to 5.8 uM after 24 hrs by SDS-polyactylamide gel electrophoresis; assay type: functional, cell-based
[7] = test system: MDA-MB-231; assay: Induction of apoptosis in human MDA-MB-231 cells assessed as increase in expression of cleaved PARP at 2.5 to 5.8 uM after 24 hrs by SDS-polyactylamide gel electrophoresis; assay type: functional, cell-based

Work on COc1cccc2c1C(=O)c1c(O)c3c(c(O)c1C2=O)C[C@@](O)(C(=O)CO)C[C@@H]3O[C@H]1C[C@H](N)[C@H](O)[C@H](C)O1 [DOXORUBICIN] yielded an IC50 [1] of 2.9 µM.
Compound CC(=O)O[C@H]1C(=O)[C@@]2(C)[C@H]([C@H](OC(=O)c3ccccc3)[C@]3(O)C[C@H](OC(=O)[C@H](O)[C@@H](NC(=O)c4ccccc4)c4ccccc4)C(C)=C1C3(C)C)[C@]1(OC(C)=O)CO[C@@H]1C[C@@H]2O [PACLITAXEL] has an IC50 [1] of 6.2 µM.
For O=C(O[C@@H]1Cc2c(O)cc(O)cc2O[C@@H]1c1cc(O)c(O)c(O)c1)c1cc(O)c(O)c(O)c1 [EPIGALOCATECHIN GALLATE], the IC50 [1] was 76.1 µM.
With CC(C)CCC[C@](C)(O)[C@H]1CC[C@]2(C)[C@@H]1[C@H](O)C[C@@H]1[C@@]3(C)CC[C@H](O)C(C)(C)[C@@H]3CC[C@]12C the IC50 [1] was 27 µM.
COc1cc(/C=C/C(=O)CC(=O)/C=C/c2ccc(O)c(OC)c2)ccc1O [CURCUMIN] showed an IC50 [1] of 34.4 µM.
CC(C)=CCC[C@](C)(O)[C@H]1CC[C@]2(C)[C@@H]1[C@H](O)C[C@@H]1[C@@]3(C)CC[C@H](O)C(C)(C)[C@@H]3CC[C@]12C was tested, and the Activity [2] was “Active”, the Activity [3] was 8.18% and the IC50 [4] was 36.7 µM. The Activity [5] was “Active”, the Activity [6] was “Active” and the Activity [7] was “Active”. The IC50 [1] was 5.9 µM.
With CC(C)CCC[C@](C)(O)[C@H]1CC[C@]2(C)[C@@H]1[C@H](O)C[C@@H]1[C@@]3(C)CC[C@H](O)C(C)(C)[C@@H]3[C@@H](O)C[C@]12C the IC50 [1] was 25.8 µM.
CC(C)=CCC[C@](C)(O)[C@H]1CC[C@]2(C)[C@@H]1[C@H](O)C[C@@H]1[C@@]3(C)CC[C@H](O)C(C)(C)[C@@H]3[C@@H](O)C[C@]12C showed an IC50 [1] of 12.2 µM.
